The nature of series [1]: Drug metabolism properties (pharmacokinetics) in mice. The series is classed as in vivo. Conditions: mouse, plasma, intravenous injection/oral gavage, read-out: Oral bioavailability F % (mice). The procedure: In order to investigate the drug metabolism property of the compounds provided herein in mice, a compound solution was given to 6 mice by intravenous injection/oral gavage at corresponding doses. Mice were divided into groups A and B for each administration, where anticoagulated whole blood was collected from group A at 5 min, 30 min, 2 h and 8 h after drug administration; and anticoagulated whole blood was collected from group B at 15 min, 1 h, 4 h and 24 h after drug administration. plasma was separated.
(§1) Plasma concentrations of compounds were determined by standard curve calibration method using LC-MS. Using Winnolin 5.2 software, plasma concentration-time data were fitted to pharmacokinetic parameters, including elimination half-life (T1/2), area under the plasma pharmacokinetic curve at the sampling endpoint (AUClast), peak concentration (Cmax), apparent volume of distribution (Vz), total clearance ration (Cl), and absolute bioavailability (F %).

A further series concerns the target T1, human IL-17A (hIL-17A) (Homo sapiens, UniProt Q16552).
T1 construct: purchased Sino Biological Inc. 12047-H07B
T1 sequence (Q16552 24-155): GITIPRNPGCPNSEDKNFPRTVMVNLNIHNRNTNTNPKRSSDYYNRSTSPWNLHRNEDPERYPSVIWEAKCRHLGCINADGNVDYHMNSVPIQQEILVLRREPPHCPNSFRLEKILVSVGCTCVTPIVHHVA
The experiment in a line: IL-17A enzyme-linked immunosorbent assay (competitive ELISA, receptor-ligand binding). An outline of the steps: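 Plates were coated with 0.2 μg/ml hIL-17A and blocked with milk. Compounds were preincubated on the plate for 10 min at 25° C, then 16 nM stock IL-17R was added for 30 min. Bound receptor was detected with anti-Fc HRP and TMB at 450 nm.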
(In general: In an ELISA, binding on a coated surface is turned into a signal by an enzyme label.)

Series [2] in a line: Drug metabolism properties (pharmacokinetics) in rats. The class given is in vivo. Conditions: plasma; rat, intravenous injection/oral gavage; read-out: Oral bioavailability F % (rat). On the procedure:
In order to investigate the drug metabolism property of the compounds provided herein in rats, a compound solution was given to 3 rats by intravenous injection/oral gavage at corresponding doses. After 5 min, 15 min, 30 min, 1 h, 2 h, 4 h, 8 h and 24 h administration, anticoagulated whole blood was collected from rats, and plasma was separated.
as §1

The next series addresses T2, hIL-17A (Homo sapiens, UniProt Q16552).
T2 construct: purchased R&D 317-ILB
T2 sequence (Q16552 20-155 limits assumed): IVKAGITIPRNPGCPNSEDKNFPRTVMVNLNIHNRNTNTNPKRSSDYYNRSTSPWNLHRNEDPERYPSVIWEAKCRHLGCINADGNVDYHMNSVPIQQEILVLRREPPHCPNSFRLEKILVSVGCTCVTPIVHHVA
Briefly: Inhibition of hIL-17A-induced chemokine GROα/CXCL1 production in HT-29 cell. The series is classed as cell-based. Summed up:
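HT-29 cells stimulated 48 h at 37 °C with 30 ng/mL hIL-17A pre-incubated 1 h with graded compound concentrations; anti-IL-17A antibody (0.3 μg/mL) as positive control. Supernatant GROα measured by ELISA.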

Series [3] in a line: Drug metabolism properties (pharmacokinetics) in dogs. Conditions: both sexes, plasma; dog, intravenous injection/oral gavage; read-out: Oral bioavailability F % (dog). The series is classed as in vivo. The procedure:
In order to investigate the drug metabolism property of the compounds provided herein in dogs, a compound solution was given to 2 groups of dogs (4 dogs (2 males+2 females) for each group) by intravenous injection/oral gavage at corresponding doses. After […], 15 min, 30 min, 1 h, 2 h, 4 h, 8 h, 12 h, 24 h and 36 h administration, anticoagulated whole blood was collected from dogs, and plasma was separated.
as §1

The next series addresses T3, hIL-17A/RA (Homo sapiens, UniProt Q16552).
T3 construct: biotin label (inferred from streptavidin-HRP detection)
T3 sequence (Q16552 24-155): T1 sequence (Q16552 24-155)
Briefly: Reversibility of binding by jump dilution ELISA (hIL-17A/hIL-17RA). The note with it: for maintenance of binding to and inhibition of hIL-17A protein (jump dilution, in words): compared with the positive compound. On the procedure:
The reversibility of the binding of the compounds in Examples to hIL-17A and the binding time of the compound-protein complex were qualitatively and quantitatively analyzed by jump dilution assay. The positive compound was the compound of Example 32 in WO2020/127685 A1. 7 nM hIL-17RA were inoculated to a 96-well plate (100 μL for per well), and incubated at 37° C. for 30 min. A blank group was 100 μL of coating buffer solution. After […] incubation at 4° C., the 96-well plate was washed with PBST (0.05% Tween-20) 4 times, 200 μL for per well each time. The 96-well plate was added with 200 μL 3% BSA (PBST diluted) and closed on a shaker at 37° C. for 30 min. […] The configured hIL7A was mixed with an equal volume of compound in a 200 ul centrifuge tube to obtain a protein-compound mixture. The protein-compound mixture was subjected to pre-incubation at room temperature for 15 min. The protein-compound mixture, positive control group and negative control group were diluted 200×. After closing, the 96-well plate was washed 4 times, and added with dilution 100 μL for per well to incubate at 25° C. for 28, 24, 5, 2 and 0 h. After washing the plate 4 times, 100 μL of Streptavidin-HRP coupled antibody diluted with 1% BSA was added and then incubated for 30 min on a shaker at 25° C. After washing the plate 4 times, 100 μL of TMB substrate solution were added, and incubated away from light for 5-15 min at 25° C. (depending on the color of the reaction). After addition of 20% HCl, an absorbance was measure by a microplate reader at 450 nm.

A further series has as its target T4, hIL-17A protein (Homo sapiens, UniProt Q16552).
T4 sequence (Q16552 24-155): T1 sequence (Q16552 24-155)
The experiment in a line: Binding to hIL-17A protein through surface plasmon resonance (SPR, Biacore 8K). The note with it: for ka / kd: SPR; for binding to hIL-17A (SPR, in words): compared with the positive compound. On the procedure:
The binding of the compounds provided herein to the hIL-17A protein was tested using SPR, and analyzed using a Biacore 8K system. A positive compound was the compound of Example 32 in WO2020/127685A1.
A general note: SPR reads the build-up and loss of mass on a sensor chip optically.

Series [4] relates to imiquimod cream-induced psoriasis model. Briefly: Pharmacodynamic test of imiquimod cream-induced psoriasis model in mice. The series is classed as in vivo, C57BL/6N mice. On the procedure:
The backs of […] female C57BL/6N mice were shaved approximately 2.5×4 cm, and imiquimod (IMQ, Imiquimod) cream was applied continuously from day 1 to day 5 to establish a psoriasis model. The compound 26 provided herein (3, 10, 30 mg/kg) was given once daily by gavage to the mice, an IL-17A antibody solution (Ab, 2 mg/kg) was given by intraperitoneal injection every other day to the mice, or a dexamethasone solution (10 mg/kg) was given once daily by intraperitoneal injection to the mice. […] A skin thickness of mice was measured on the first day and fifth day to examine IMQ-induced skin thickening (FIG. 3B).
The skin of each group of mice was collected on the fifth day to detect IL6 mRNA levels by RT-qPCR (FIG. 3C). […] The plasma of mice in each group was collected on the fifth day to determine the level of IL-6 protein (FIG. 3D).

In general, bioavailability refers to dose-corrected exposure relative to a reference, in per cent. Usually IC50 stands for the concentration that inhibits the measured activity by half. A low value points to higher potency. By Kd is commonly meant the equilibrium constant for the complex coming apart. Higher therefore signals weaker binding. Take `CCc1nonc1C(=O)N[C@H](C(=O)Nc1ccc(-c2c(C)n[nH]c2C)cc1)C1c2cc(F)c(F)cc2OCC12CC2` (stereo partly shown) [Compound 43]: the bioavailability in series [1] came to 49%. This compound also returned an IC50 at human IL-17A (hIL-17A) of 55 nM. Besides, in series [2], the bioavailability amounted to 36%. Besides, on hIL-17A, half-maximal inhibition (IC50) was put at 57 nM. Also, the bioavailability in series [3] worked out at 18%. At hIL-17A/RA, the “maintenance of binding to and inhibition of hIL-17A protein (jump dilution, in words)” value was “able to maintain binding to and inhibit the activity of hIL-17A protein for a long time”. The “50% enzyme activity retention time, Value on hIL-17A/RA (5X cpds)” value at hIL-17A/RA (jump dilution, 5X cpds) was >28 h. Also, the “50% enzyme activity retention time, Value on hIL-17A/RA (10X cpds)” value on hIL-17A/RA (jump dilution, 10X cpds) is given as >28 h. Further, at hIL-17A protein, the Kd came out at 0.00132 nM; the ka worked out at 14200 M⁻¹ s⁻¹; the kd stood at 1.87e-08 s⁻¹; the “binding to hIL-17A (SPR, in words)” value is “strong binding to hIL-17A and were much stronger than the positive compound”.

On to `CCc1nonc1C(=O)N[C@H](C(=O)Nc1ccc(-c2c(C)n[nH]c2C)nc1)C1c2ccc(F)cc2OCC12CC2` (stereo partly shown) [Compound 26], for which the bioavailability in series [1] was determined as 54%. The compound further returned an IC50 at human IL-17A (hIL-17A) of 70 nM. Moreover, the bioavailability in series [2] was 16%. Further, the IC50 against hIL-17A stood at 267 nM. The “maintenance of binding to and inhibition of hIL-17A protein (jump dilution, in words)” value on hIL-17A/RA was “able to maintain binding to and inhibit the activity of hIL-17A protein for a long time”. For the same compound, at hIL-17A protein, the ka was determined as 21300 M⁻¹ s⁻¹; the kd is 1.98e-08 s⁻¹; the “binding to hIL-17A (SPR, in words)” value was “strong binding to hIL-17A and were much stronger than the positive compound”. Also, the “skin pathological injury, HE staining” value in series [4] (30 mg/kg, fifth day, FIGS. 4A-4D) is “effective in inhibiting IMQ-induced skin inflammatory cell infiltration and damage”. Besides, the “IMQ-induced skin inflammation, AUC of PASI scoring” value in series [4] (3, 10, 30 mg/kg once daily by gavage, FIG. 3A) is “attenuated the level of IMQ-induced skin inflammation with effects similar to those of the IL-17A antibody”. Also, the “skin IL6 mRNA levels by RT-qPCR” value in series [4] (fifth day, FIG. 3C) is given as “dose-dependent reversion”. For the same compound, in series [4] (fifth day, FIG. 3D), the “IL-6 protein level in plasma” value is reported as “inhibited in a dose-dependent manner”. The IMQ-induced skin thickening result in series [4] (skin thickness first day and fifth day, FIG. 3B) is recorded as “reversed the skin thickening caused by IMQ to varying degrees”.

Regarding `CCc1nonc1C(=O)N[C@H](C(=O)Nc1ccc(-c2c(C)n[nH]c2C)cc1)C1c2ccc(F)c(F)c2OCC12CC2` (stereo partly shown) [Compound 58], the figures for the bioavailability in series [1], in series [2] and in series [3] were 26%, 28% and 16%, respectively. For the same compound, the results for the half-inhibitory concentration (IC50) on human IL-17A (hIL-17A) and on hIL-17A were 54 nM and 109 nM, respectively.

Regarding `Cc1n[nH]c(C)c1-c1ccc(NC(=O)[C@@H](NC(=O)c2ccnn2C(C)C)C2c3ccc(F)cc3OCC23CC3)cn1` (stereo partly shown) [Compound 18], the bioavailability in series [1] came to 55%; in series [2], 18%; in series [3] it was 41%. Moreover, the figures for the IC50 on human IL-17A (hIL-17A) and on hIL-17A were 164 nM and 332 nM, respectively.

As to `Cc1n[nH]c(C)c1-c1ccc(NC(=O)[C@@H](NC(=O)c2nonc2C2CC2)C2c3cc(F)c(F)cc3OCC23CC3)cc1` (stereo partly shown) [Compound 49], the figures for the bioavailability in series [1], in series [2] and in series [3] were 37%, 17% and 20%, respectively. Also, the IC50 at human IL-17A (hIL-17A) and at hIL-17A was 146 nM in each case.

In the case of `Cc1nonc1C(=O)N[C@H](C(=O)Nc1ccc(-c2c(C)n[nH]c2C)cc1)C1c2ccc(F)cc2OCC12CC2` (stereo partly shown) [Compound 24], the figures for the bioavailability in series [1], in series [2] and in series [3] were 51%, 56% and 27%, respectively. The IC50 at human IL-17A (hIL-17A) came to 53 nM; at hIL-17A it was 30 nM. The compound also displayed a Kd at hIL-17A protein of 0.00388 nM. Besides, the ka at hIL-17A protein came out at 12400 M⁻¹ s⁻¹. At hIL-17A protein, this compound returned a kd of 4.8e-08 s⁻¹. The “binding to hIL-17A (SPR, in words)” value on hIL-17A protein was “strong binding to hIL-17A and were much stronger than the positive compound”.
